Reference: patent USRE42152E1, “Aromatic-linked polyamine macrocyclic compounds with anti-HIV activity” (Genzyme Corporation, priority 1992, dated 2011)
Read-outs that look alike come from different tables or passages of the source.

Key:
Format in all cases: cell-based
HIV-2 (LAV-2 ROD) = experiment: MTT anti-viral screen, MT-4 cells challenged with HIV-2; conditions: MT-4 cells, 100 CCID50, 5 days, MTT
MT-4 cells = experiment: Cytotoxicity by MTT method in MT-4 cells
HIV-1 (HTLV-IIIB) = experiment: microbe, parasite or virus in culture; conditions: MT-4 cells, 100 CCID50, 5 days, MTT
[1] = MT-4 cells, 5 days, MTT, HIV-1 part of table
[2] = MT-4 cells, 5 days, MTT, HIV-2 part of table

Compound | IC50 HIV-2 (ROD) (HIV-2 (LAV-2 ROD)) [µg/mL] | CC50 (HIV-1 (IIIB)) (MT-4 cells; [1]) [µg/mL] | CC50 (HIV-2 (ROD)) (MT-4 cells; [2]) [µg/mL] | IC50 HIV-1 (IIIB) (HIV-1 (HTLV-IIIB)) [µg/mL] | CC50 (HIV-1 (IIIB)) (MT-4 cells) [µg/mL] | CC50 (HIV-2 (ROD)) (MT-4 cells) [µg/mL]
1,1′-[1,4-Phenylene-bis-(methylene)]-bis-1,4,8,11-tetraazacyclotetradecane copper diacetate hexahydrate [Compound G] | 0.027 | >200 | >200 | 0.018 | – | –
1,1′-[1,4-Phenylene-bis-(methylene)]-bis-1,4,8,11-tetraazacyclotetradecane zinc dichloride monohydrate [Compound F] | 0.0019 | >200 | >200 | 0.0026 | – | –
Br.Br.Br.Br.Br.Br.Br.Br.O.O.O.O.c1cc(CN2CCCNCCNCCCNCC2)cc(-c2cccc(CN3CCCNCCNCCCNCC3)c2)c1 [Compound J, 1,1′-[3,3′-Biphenylene-bis-(methylene)]-bis-1,4,8,11-tetraazacyclotetradecane octahydrobromide tetrahydrate] | 0.22 | – | – | 0.16 | >200 | >200
Br.Br.Br.Br.Br.Br.Br.Br.Br.Br.O.O.O.O.O.c1cc(CN2CCCNCCNCCCNCC2)cc(-c2cc(CN3CCCNCCNCCCNCC3)ccn2)n1 [Compound K, 1,1′-[4,4′-(2,2′-Bipyridine)-bis-(methyl)]-bis-1,4,8,11-tetraazacyclotetradecane decahydrobromide pentahydrate] | 0.35 | 117 | 117 | 0.38 | – | –
Br.Br.Br.Br.Br.Br.Br.Br.Br.Br.O.O.O.c1cc2ccc3ccc(CN4CCCNCCNCCCNCC4)nc3c2nc1CN1CCCNCCNCCCNCC1 [Compound L, 1,1′-[2,9-(1,10-Phenanthroline)-bis-(methylene)]-bis-1,4,8,11-tetraazacyclotetradecane decahydrobromide trihydrate] | 0.32 | – | – | 0.29 | >200 | >200
Br.Br.Br.Br.Br.Br.Br.Br.O.O.O.O.O.O.c1cc(CN2CCCNCCNCCCNCC2)ccc1CN1CCCNCCNCCNCCC1 [Compound N, 1,11′-[1,4-Phenylene-bis-(methylene)]-1,4,8,11-tetraazacyclotetradecane-1,4,7,11-tetraazacydotetradecane octahydrobromide hexahydrate] | 0.07 | – | – | 0.01 | >500 | >500
Br.Br.Br.Br.Br.Br.Br.Br.O.O.O.O.c1cc(CN2CCCNCCNCCCNCC2)nc(CN2CCCNCCNCCCNCC2)c1 [Compound O, 1,1′-[2,6-Pyridinebis-(methylene)]-bis-1,4,8,11-tetraazacyclotetradecane octahydrobromide tetrahydrate] | 0.08 | – | – | 0.03 | >500 | >500
Br.Br.Br.Br.Br.Br.Br.Br.Br.O.O.c1ncc(CN2CCCNCCNCCCNCC2)cc1CN1CCCNCCNCCCNCC1 [Compound P, 1,1′[3,5-Pyridinebis-(methylene)]-bis-1,4,8,11-tetraazacyclotetradecane nonahydrobromide dihydrate] | 0.09 | – | – | 0.04 | >500 | >500
Br.Br.Br.Br.Br.Br.Br.Br.c1cc(CN2CCCNCCNCCCNCC2)sc1CN1CCCNCCNCCCNCC1 [Compound T, 1,1′-[2,5-Thophenebis-(methylene)]-bis-1,4,8,11-tetraazacyclotetradecane octahydrobromide] | 0.02 | – | – | 0.01 | >500 | >500
